COc1cc(CC(=O)NC(CC(C)C)c2cc(CC(NC(=O)c3c(Cl)cccc3Cl)C(=O)O)on2)ccc1NC(=O)Nc1ccccc1C (centres unmarked) [Example 25, 2-(2,6-Dichloro-benzoylamino)-3-[3-(1-{2-[3-methoxy-4-(3-o-tolyl-ureido)-phenyl]-acetylamino}-3-methyl-butyl)-isoxazol-5-yl]-propionic acid]
melting point: 102 to 104 °C

COc1cc(CC(=O)NC(CC(C)C)c2cc(CC(NC(C)=O)C(=O)O)on2)ccc1NC(=O)Nc1ccccc1C (centres unmarked) [Example 27, 2-acetylamino-3-[3-(1-{2-[3-methoxy-4-(3-o-tolyl-ureido)-phenyl]-acetylamino}-3-methyl-butyl)-isoxazol-5-yl]-propionic acid]
melting point: 123 to 125 °C
